Data set [1] is described as follows: in vitro. Conditions: PAMPA. Background: PAMPA measures passive passage across an artificial lipid membrane.
Description: Membrane permeability dissolved in PBS/EtOH (70:30) mixture by PAMPA-BBB assay
A short description of data set [2]: in vitro. Conditions: PAMPA. This is another data set of the same source.
Description: Membrane permeability dissolved in PBS/EtOH (80:20) mixture by PAMPA-BBB assay
Data set [3] deals with Amyloid-beta precursor protein (Homo sapiens) (UniProt P05067). In words: Inhibition of self-induced amyloid beta (1-42) aggregation at 50 uM by thioflavin T fluorescence method.
Data set [4] deals with T1, Beta-secretase 1 (Homo sapiens, UniProt P56817). In words: Inhibition of human recombinant BACE1 at 2.5 uM by fluorimetric assay.
In another data set the target is Cholinesterase (Homo sapiens, UniProt P06276). In words: Inhibition of human serum BChE by Ellman's method. (In general: Ellman's reagent forms a yellow product with free thiols.)
In data set [5] the target is T2, Acetylcholinesterase (Bos taurus, UniProt P23795).
T2 sequence (P23795 whole entry): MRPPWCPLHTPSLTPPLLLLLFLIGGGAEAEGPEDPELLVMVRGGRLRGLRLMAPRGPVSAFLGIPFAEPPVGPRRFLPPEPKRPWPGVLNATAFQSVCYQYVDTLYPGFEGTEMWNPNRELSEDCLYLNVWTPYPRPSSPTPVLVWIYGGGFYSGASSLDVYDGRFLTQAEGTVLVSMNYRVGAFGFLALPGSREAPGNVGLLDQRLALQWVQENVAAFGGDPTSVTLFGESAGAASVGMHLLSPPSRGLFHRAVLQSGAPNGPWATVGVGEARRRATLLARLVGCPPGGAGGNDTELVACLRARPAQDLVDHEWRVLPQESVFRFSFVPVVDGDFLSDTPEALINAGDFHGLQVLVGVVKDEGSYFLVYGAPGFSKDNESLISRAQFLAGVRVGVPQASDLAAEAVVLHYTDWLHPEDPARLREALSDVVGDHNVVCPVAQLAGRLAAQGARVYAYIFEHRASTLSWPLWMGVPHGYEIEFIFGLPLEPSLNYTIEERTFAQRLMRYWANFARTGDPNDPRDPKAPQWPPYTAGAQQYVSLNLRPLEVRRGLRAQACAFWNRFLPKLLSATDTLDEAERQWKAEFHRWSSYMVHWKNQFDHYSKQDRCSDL
In words: Inhibition of bovine AChE by Ellman's method.

Data set [6] concerns the target T3, Acetylcholinesterase (Homo sapiens, UniProt P22303).
Description: Inhibition of AChE in human erythrocytes by Ellman's method
The target in data set [7] is T3, Acetylcholinesterase. In words: Inhibition of human recombinant AChE by Lineweaver-Burke reciprocal plot analysis.
Data set [8] deals with T1, Beta-secretase 1. In words: Inhibition of human recombinant BACE1 by fluorimetric assay.

Here are results for 16 compounds from ChEMBL document CHEMBL1152433, “Pyrano[3,2-c]quinoline-6-chlorotacrine hybrids as a novel family of acetylcholinesterase- and beta-amyloid-directed anti-Alzheimer compounds” (J Med Chem, 2009).

Active and inactive are the calls of the source. The rule behind the calls is not given here.

Chain of Cholinesterase (P06276 whole entry): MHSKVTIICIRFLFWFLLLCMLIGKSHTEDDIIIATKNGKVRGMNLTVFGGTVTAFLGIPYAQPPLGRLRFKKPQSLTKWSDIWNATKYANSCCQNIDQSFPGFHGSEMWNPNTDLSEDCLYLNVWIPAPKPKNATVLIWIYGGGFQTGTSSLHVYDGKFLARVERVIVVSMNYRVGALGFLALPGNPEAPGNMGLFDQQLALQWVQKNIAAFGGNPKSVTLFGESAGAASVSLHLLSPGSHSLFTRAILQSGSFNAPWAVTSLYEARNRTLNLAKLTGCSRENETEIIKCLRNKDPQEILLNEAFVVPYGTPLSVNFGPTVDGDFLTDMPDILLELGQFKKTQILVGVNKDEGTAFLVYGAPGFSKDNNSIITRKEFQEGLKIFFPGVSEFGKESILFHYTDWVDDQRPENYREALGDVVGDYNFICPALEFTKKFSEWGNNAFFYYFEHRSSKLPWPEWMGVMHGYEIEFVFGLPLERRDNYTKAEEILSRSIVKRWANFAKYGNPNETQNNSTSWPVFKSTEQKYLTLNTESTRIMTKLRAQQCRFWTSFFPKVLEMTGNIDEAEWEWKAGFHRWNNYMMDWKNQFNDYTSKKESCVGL
T1 sequence (P56817 whole entry): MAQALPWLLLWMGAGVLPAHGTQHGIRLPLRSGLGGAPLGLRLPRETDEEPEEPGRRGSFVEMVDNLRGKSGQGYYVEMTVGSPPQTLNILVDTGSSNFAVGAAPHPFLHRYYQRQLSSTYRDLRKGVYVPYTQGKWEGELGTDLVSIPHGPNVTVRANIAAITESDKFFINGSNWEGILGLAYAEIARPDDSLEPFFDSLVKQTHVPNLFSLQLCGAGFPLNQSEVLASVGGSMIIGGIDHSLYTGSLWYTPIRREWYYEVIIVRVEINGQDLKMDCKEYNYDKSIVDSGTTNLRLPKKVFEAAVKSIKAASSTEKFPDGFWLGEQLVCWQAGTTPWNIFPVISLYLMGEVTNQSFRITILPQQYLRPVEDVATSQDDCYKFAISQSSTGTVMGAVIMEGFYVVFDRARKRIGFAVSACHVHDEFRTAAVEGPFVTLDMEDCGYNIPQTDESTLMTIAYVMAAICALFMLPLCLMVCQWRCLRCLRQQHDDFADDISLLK
Chain of Amyloid-beta precursor protein (Homo sapiens) (P05067 whole entry): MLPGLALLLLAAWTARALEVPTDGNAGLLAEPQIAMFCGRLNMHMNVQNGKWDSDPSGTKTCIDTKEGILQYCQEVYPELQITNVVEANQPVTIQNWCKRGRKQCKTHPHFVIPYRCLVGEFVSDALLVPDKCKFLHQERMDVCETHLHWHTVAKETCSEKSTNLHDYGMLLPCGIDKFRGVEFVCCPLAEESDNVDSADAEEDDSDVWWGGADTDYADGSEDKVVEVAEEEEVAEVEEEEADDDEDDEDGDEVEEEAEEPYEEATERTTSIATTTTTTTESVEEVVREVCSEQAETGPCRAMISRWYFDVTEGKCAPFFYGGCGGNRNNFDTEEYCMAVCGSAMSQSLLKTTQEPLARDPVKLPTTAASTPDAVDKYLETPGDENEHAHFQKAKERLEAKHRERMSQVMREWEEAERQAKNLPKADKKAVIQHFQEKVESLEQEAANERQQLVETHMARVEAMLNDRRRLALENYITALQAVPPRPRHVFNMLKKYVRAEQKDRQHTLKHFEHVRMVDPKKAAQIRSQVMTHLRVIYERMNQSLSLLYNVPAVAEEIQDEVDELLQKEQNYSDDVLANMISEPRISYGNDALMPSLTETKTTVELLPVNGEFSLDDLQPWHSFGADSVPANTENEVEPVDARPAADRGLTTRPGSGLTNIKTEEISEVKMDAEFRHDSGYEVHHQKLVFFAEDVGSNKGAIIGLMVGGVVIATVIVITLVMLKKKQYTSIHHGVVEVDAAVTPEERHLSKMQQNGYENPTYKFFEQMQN
T3 sequence (P22303 whole entry): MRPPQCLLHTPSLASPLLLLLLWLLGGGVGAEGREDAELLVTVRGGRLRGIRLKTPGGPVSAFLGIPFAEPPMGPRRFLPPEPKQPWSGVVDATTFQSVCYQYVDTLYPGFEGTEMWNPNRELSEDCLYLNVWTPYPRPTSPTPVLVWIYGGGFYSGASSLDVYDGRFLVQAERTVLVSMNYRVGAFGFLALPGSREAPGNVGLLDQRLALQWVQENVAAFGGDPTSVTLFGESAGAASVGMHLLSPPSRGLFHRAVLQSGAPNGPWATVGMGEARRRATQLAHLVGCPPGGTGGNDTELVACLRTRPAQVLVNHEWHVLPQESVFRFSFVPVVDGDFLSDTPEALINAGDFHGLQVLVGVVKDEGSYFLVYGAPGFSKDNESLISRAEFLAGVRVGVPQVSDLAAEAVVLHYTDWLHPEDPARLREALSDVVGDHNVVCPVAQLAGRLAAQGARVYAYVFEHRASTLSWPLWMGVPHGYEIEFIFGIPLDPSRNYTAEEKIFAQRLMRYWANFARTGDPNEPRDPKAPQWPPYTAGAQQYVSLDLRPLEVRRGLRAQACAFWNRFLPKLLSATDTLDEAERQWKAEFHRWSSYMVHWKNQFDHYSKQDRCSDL

The term Papp denotes a coefficient for how fast a substance crosses the barrier. Read a low Papp as poor permeation. In the case of `CN(C)CCCN1c2ccccc2Sc2ccc(Cl)cc21` [CHLORPROMAZINE], the Papp in “in vitro [1]” came out at 13.6 ×10⁻⁶ cm/s; in the data set “in vitro [2]” it was 8.5 ×10⁻⁶ cm/s.

One may read the inhibition as how much of the control response was suppressed. Compound `Cl.Nc1c2c(nc3cc(Cl)ccc13)CCCC2` had an inhibition in data set [3] of 7.1%. For the same compound, the inhibition entry at Beta-secretase 1 [4] was “inactive”. Besides, in the data set “in vitro [2]”, the apparent permeability coefficient (Papp) stood at 19.8 ×10⁻⁶ cm/s.

A word on the IC50: it is the concentration that inhibits the measured activity by half. `O=C(NCCCCCCCCCCNc1c2c(nc3cc(Cl)ccc13)CCCC2)c1ccc2nc(-c3ccc(Cl)cc3)c3c(c2c1)OCCC3`: the figures for the IC50 against Cholinesterase, on Acetylcholinesterase [5] and against Acetylcholinesterase [6] were 1620 nM, 93.7 nM and 50 nM, respectively. The compound further had an inhibition in data set [3] of 20.5%. The inhibition result at Beta-secretase 1 [4] was “inactive”.

Turning to `Cl.Cl.Cl.O=C(CCc1ccc2nc(-c3ccccc3)c3c(c2c1)OCCC3)NCCCCCCCNc1c2c(nc3cc(Cl)ccc13)CCCC2`, the values for the half-maximal inhibitory concentration (IC50) on Cholinesterase, on Acetylcholinesterase [5] and on Acetylcholinesterase [6] were 234 nM, 29.9 nM and 14.4 nM, respectively. The Papp in the data set “in vitro [1]” amounted to 10.2 ×10⁻⁶ cm/s. Moreover, the inhibition in [3] was determined as 49.1%; on Beta-secretase 1 [4], 34.4%.

On to `Cl.Cl.Cl.O=C(CCc1ccc2nc(-c3ccccc3)c3c(c2c1)OCCC3)NCCCCCCNc1c2c(nc3cc(Cl)ccc13)CCCC2`, for which the IC50 on Cholinesterase came out at 218 nM; on Acetylcholinesterase [5] it was 30.8 nM; on Acetylcholinesterase [6], 11.1 nM. In addition, the inhibition was found to be 30.8% in data set [3] and 19.6% at Beta-secretase 1 [4]. In the data set “in vitro [2]”, this compound returned a Papp of 13.2 ×10⁻⁶ cm/s.

Compound `CC[N+](C)(CC)CCC[n+]1c(-c2ccccc2)c2cc(N)ccc2c2ccc(N)cc21` [PROPIDIUM] showed an inhibition in [3] of 89.8%. This compound also displayed an IC50 against Acetylcholinesterase [5] of 6290 nM.

For the compound `CCOC(=O)c1ccc2nc(-c3ccc(Cl)cc3)c3c(c2c1)OCCC3`, the IC50 at Cholinesterase, at Acetylcholinesterase [5] and against Acetylcholinesterase [6] was greater than 10000 nM throughout.

The term Ki denotes a measure of affinity in units of concentration, obtained from inhibition or displacement. Regarding `O=C(NCCCCCCCCNc1c2c(nc3cc(Cl)ccc13)CCCC2)c1ccc2nc(-c3ccc(Cl)cc3)c3c(c2c1)OCCC3`, the IC50 against Cholinesterase was determined as 331 nM; at Acetylcholinesterase [5], 10.4 nM; against Acetylcholinesterase [6], 7.03 nM. In addition, the inhibition in [3] turned out to be 21.5%; on Beta-secretase 1 [4], 18.5%. The Ki on Acetylcholinesterase [7] was 1.91 nM.

With `Cl.Cl.Cl.Cl.O=C(NCCCCCCCNc1c2c(nc3cc(Cl)ccc13)CCCC2)c1ccc2nc(-c3ccc(Cl)cc3)c3c(c2c1)OCCC3`, the IC50 amounted to 1930 nM at Cholinesterase, 10.3 nM at Acetylcholinesterase [5] and 18.3 nM against Acetylcholinesterase [6]. In “in vitro [1]”, the apparent permeability coefficient (Papp) came out at 17.7 ×10⁻⁶ cm/s. The inhibition in data set [3] turned out to be 28.6%; at Beta-secretase 1 [4] it was 14.5%.

`c1ccc2c(NCCCCCCCNc3c4c(nc5ccccc35)CCCC4)c3c(nc2c1)CCCC3`: the IC50 on Beta-secretase 1 [8] amounted to 7500 nM.

Turning to `COC(=O)CCc1ccc2nc(-c3ccccc3)c3c(c2c1)OCCC3`, the inhibition result (in [3]; at Beta-secretase 1 [4]) was “inactive” in each case. In addition, the IC50 against Acetylcholinesterase [5] was greater than 10000 nM.

`Cl.Cl.Cl.Cl.O=C(NCCCCCCNc1c2c(nc3cc(Cl)ccc13)CCCC2)c1ccc2nc(-c3ccc(Cl)cc3)c3c(c2c1)OCCC3`: the IC50 was 1070 nM at Cholinesterase, 20.4 nM on Acetylcholinesterase [5] and 19.2 nM against Acetylcholinesterase [6]. This compound showed a Papp in the data set “in vitro [1]” of 14.9 ×10⁻⁶ cm/s. In data set [3], this compound registered an inhibition of 16.4%. In addition, the inhibition entry at Beta-secretase 1 [4] was “inactive”.

Regarding `Cl.Cl.Cl.O=C(CCc1ccc2nc(-c3ccccc3)c3c(c2c1)OCCC3)NCCCCCCCCNc1c2c(nc3cc(Cl)ccc13)CCCC2`, the IC50 is 1810 nM on Beta-secretase 1 [8], 1080 nM at Cholinesterase, 34.1 nM against Acetylcholinesterase [5] and 14 nM against Acetylcholinesterase [6]. In the data set “in vitro [1]”, this compound displayed a Papp of 10.1 ×10⁻⁶ cm/s. Moreover, the inhibition in data set [3] is 47.3%; at Beta-secretase 1 [4], 77.8%.

For the compound `O=C(NCCCCCCCCCNc1c2c(nc3cc(Cl)ccc13)CCCC2)c1ccc2nc(-c3ccc(Cl)cc3)c3c(c2c1)OCCC3`, the values for the IC50 against Cholinesterase, against Acetylcholinesterase [5] and on Acetylcholinesterase [6] were 1390 nM, 24 nM and 24.9 nM, respectively.

In the case of `Cl.Cl.Cl.O=C(CCc1ccc2nc(-c3ccccc3)c3c(c2c1)OCCC3)NCCCCNc1c2c(nc3cc(Cl)ccc13)CCCC2`, the values for the IC50 on Cholinesterase, against Acetylcholinesterase [5] and against Acetylcholinesterase [6] were 586 nM, 48.1 nM and 16.6 nM, respectively. Besides, the inhibition in data set [3] amounted to 45.3%. In addition, the inhibition result on Beta-secretase 1 [4] is “inactive”. Also, the Papp in “in vitro [2]” was found to be 15.1 ×10⁻⁶ cm/s.

Take `Cl.Cl.O=C(CCc1ccc2nc(-c3ccccc3)c3c(c2c1)OCCC3)NCCCCCNc1c2c(nc3cc(Cl)ccc13)CCCC2`: the IC50 against Cholinesterase was 290 nM; at Acetylcholinesterase [5], 23.9 nM; against Acetylcholinesterase [6], 9.64 nM. Besides, the Papp in the data set “in vitro [1]” is 10.6 ×10⁻⁶ cm/s. Further, in data set [3], the inhibition was determined as 12.2%. Further, on Beta-secretase 1 [4], the inhibition result was “inactive”.
